The source made the active and inactive calls. Cut-off read from the data, not from the text of the source, for most assays here: actives have a measured IC50 and inactives only a lower limit.
Key:
[1] = biological target: T1, Short transient receptor potential channel 4 (Mus musculus, UniProt Q9QUQ5); experiment: block of DAMGO-driven TRPC4 calcium entry – cell-based, HEK293 TRPC4/mu-opioid, Fluo-4 calcium, dose response (AID 434942); type: functional;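 note: potency of inhibitors blocking the TRPC4 calcium response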
T1 sequence (Q9QUQ5 whole entry): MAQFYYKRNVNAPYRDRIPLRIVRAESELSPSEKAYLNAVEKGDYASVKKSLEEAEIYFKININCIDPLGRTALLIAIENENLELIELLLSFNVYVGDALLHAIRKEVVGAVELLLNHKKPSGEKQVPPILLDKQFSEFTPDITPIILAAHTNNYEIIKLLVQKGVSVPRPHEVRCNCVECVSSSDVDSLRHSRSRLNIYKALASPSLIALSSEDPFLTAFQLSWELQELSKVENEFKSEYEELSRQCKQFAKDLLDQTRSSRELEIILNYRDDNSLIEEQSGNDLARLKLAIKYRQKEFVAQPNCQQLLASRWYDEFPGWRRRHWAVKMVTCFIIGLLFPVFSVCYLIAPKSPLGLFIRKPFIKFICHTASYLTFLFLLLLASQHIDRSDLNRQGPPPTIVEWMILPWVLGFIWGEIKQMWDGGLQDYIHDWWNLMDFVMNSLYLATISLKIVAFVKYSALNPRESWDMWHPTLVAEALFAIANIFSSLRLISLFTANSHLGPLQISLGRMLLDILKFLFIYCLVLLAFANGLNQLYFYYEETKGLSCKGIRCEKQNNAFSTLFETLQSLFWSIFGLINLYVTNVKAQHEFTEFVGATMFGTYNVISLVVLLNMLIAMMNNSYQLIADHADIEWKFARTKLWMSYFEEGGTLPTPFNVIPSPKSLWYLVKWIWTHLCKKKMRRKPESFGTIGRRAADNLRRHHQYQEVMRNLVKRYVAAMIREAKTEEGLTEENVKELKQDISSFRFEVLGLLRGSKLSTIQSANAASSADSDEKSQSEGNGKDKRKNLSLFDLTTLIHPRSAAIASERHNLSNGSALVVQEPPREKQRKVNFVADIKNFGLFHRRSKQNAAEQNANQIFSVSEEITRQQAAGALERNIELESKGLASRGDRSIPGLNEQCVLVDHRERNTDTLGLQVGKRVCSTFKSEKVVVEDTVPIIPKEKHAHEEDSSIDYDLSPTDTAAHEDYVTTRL

[2] = biological target: T2, Corticotropin-releasing factor receptor 2/Corticotropin-releasing factor-binding protein (Homo sapiens, UniProt P24387+Q13324); experiment: Dose Response confirmation of uHTS hits for small molecule antagonists of the CRF-binding protein and CRF-R2 receptor complex.; type: functional; conditions: read-out: IC50_Mean
T2 sequence (Q13324 whole entry): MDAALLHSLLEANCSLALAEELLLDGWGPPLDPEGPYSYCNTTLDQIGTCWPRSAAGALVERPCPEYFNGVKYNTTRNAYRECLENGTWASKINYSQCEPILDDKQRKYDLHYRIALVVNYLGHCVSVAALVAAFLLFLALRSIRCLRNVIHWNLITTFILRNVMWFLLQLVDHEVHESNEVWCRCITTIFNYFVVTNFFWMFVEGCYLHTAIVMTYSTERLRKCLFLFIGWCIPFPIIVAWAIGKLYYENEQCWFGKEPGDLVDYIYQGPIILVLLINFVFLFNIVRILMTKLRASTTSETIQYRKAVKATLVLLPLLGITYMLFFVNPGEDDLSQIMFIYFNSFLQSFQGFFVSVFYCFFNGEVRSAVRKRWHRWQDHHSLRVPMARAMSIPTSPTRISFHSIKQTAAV
T2 sequence (P24387 whole entry): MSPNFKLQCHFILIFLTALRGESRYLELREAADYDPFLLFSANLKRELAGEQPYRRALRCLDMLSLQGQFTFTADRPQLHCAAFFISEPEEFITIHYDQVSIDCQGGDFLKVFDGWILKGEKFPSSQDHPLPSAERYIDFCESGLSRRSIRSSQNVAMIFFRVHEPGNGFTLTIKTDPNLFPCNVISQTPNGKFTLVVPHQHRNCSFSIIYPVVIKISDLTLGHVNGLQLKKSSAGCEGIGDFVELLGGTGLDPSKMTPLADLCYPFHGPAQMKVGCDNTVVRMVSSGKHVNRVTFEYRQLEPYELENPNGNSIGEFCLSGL

[3] = biological target: T2, Corticotropin-releasing factor receptor 2/Corticotropin-releasing factor-binding protein; experiment: activators of CRF receptor 2 with binding protein – uHTS hits, confirmation (AID 602473); type: functional; conditions: read-out: EC50_Mean
[4] = blockers of CRF-binding protein–CRF-R2 complex – cell-based, uHTS hits, 384-well, dose response (AID 651639); type: functional, Homo sapiens; conditions: read-out: IC50_Mean
[5] = biological target: T3, Eukaryotic translation initiation factor 4H (Homo sapiens, UniProt Q15056); experiment: eIF4H binding inhibition – biochemical, uHTS, fluorescence polarization, translation initiation inhibitor project, primary screen (AID 2012)
[6] = biological target: T4, Polyadenylate-binding protein 1 (Homo sapiens, UniProt P11940); experiment: blockers of PABP interaction with poly(A) – biochemical, fluorescence polarization, […] (AID 2014)
T4 sequence (P11940 whole entry): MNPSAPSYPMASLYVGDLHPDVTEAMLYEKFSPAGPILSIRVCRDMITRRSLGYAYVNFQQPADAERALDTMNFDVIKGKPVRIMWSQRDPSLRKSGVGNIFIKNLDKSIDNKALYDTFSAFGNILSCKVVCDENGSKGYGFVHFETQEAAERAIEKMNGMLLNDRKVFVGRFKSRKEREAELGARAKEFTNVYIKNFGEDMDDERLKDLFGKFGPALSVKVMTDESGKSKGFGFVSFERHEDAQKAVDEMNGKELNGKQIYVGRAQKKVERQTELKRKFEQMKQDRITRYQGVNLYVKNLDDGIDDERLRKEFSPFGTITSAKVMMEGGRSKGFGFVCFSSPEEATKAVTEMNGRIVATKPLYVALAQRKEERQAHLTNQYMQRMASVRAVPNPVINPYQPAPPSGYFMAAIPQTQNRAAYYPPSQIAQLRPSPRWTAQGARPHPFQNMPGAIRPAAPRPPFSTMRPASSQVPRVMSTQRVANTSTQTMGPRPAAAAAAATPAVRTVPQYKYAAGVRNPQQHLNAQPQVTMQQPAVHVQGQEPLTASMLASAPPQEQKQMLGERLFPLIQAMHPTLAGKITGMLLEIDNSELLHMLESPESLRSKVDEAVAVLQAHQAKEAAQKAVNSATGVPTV

[7] = biological target: T3, Eukaryotic translation initiation factor 4H; experiment: inhibitors of translation initiation factor eIF4H – SAR follow-up (AID 435011); type: functional
[8] = biological target: T4, Polyadenylate-binding protein 1; experiment: PABP inhibition in translation initiation, SAR follow-up (AID 435018); type: functional
X-box-binding protein 1 = X-box-binding protein 1 (Homo sapiens, UniProt P17861); type: functional, Cricetulus griseus;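 note: confirmatory dose-response counter-screen serving a CHOP assay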
X-box-binding protein 1, sequence (P17861 whole entry): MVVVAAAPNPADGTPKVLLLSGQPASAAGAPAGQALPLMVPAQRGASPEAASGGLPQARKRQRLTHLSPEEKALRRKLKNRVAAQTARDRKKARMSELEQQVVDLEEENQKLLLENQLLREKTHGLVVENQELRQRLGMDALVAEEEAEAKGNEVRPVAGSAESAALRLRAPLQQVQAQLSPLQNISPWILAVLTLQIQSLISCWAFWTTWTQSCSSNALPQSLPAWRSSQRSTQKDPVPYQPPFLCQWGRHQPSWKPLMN

SUMO-activating enzyme = SUMO-activating enzyme (Homo sapiens, UniProt Q9UBT2); experiment: blockers of SAE1/SAE2–UBC9 SUMO transfer – biochemical, HTRF, uHTS, primary screen (AID 2006); type: protein-complex assay
SUMO-activating enzyme, sequence (Q9UBE0 whole entry): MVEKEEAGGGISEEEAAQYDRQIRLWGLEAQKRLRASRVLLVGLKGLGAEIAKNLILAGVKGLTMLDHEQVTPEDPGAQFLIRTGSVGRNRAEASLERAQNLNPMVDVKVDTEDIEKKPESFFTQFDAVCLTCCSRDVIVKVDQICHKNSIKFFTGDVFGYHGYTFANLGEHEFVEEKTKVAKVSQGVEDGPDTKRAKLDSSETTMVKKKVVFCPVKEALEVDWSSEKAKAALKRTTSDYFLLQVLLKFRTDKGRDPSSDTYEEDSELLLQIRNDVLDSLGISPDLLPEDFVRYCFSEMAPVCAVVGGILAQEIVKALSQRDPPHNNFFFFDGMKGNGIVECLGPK
SUMO-activating enzyme, sequence (Q9UBT2 whole entry): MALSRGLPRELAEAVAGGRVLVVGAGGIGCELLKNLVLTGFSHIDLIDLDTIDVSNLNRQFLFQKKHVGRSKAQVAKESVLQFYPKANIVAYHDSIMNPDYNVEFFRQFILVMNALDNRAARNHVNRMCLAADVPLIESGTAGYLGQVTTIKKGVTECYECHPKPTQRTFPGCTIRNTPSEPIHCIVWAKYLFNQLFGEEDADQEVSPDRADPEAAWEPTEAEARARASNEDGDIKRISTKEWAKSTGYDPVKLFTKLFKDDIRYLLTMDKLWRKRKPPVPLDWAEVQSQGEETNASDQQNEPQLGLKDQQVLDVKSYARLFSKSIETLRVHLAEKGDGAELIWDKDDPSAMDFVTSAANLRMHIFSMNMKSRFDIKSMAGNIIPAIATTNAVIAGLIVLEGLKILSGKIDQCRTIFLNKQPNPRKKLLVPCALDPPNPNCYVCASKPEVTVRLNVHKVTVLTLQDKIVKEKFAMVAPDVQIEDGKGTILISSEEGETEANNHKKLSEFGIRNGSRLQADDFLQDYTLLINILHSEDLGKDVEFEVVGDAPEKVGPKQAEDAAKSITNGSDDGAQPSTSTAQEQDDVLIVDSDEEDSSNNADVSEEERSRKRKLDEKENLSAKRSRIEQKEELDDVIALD

[9] = biological target: T5, Mannose-6-phosphate isomerase (Homo sapiens, UniProt P34949); experiment: MPI inhibition at elevated mannose 6-phosphate – biochemical, fluorescence intensity, high mannose 6-phosphate, primary screen (AID 1220)
T5 sequence (P34949 whole entry): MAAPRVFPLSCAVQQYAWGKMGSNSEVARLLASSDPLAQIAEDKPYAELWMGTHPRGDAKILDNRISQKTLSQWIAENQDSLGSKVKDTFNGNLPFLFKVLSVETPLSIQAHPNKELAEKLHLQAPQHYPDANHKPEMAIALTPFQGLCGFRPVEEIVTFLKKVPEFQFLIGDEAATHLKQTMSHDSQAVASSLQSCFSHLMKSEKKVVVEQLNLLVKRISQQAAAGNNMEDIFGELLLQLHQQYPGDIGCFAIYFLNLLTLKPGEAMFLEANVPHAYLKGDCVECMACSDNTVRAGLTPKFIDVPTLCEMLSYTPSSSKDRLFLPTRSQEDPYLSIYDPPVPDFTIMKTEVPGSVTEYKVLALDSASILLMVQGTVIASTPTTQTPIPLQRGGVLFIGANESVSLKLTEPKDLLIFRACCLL

[10] = biological target: T6, Rac GTPase-activating protein 1 (Homo sapiens, UniProt Q9H0H5); experiment: blockers of MgcRacGAP-driven Rac1 GTP hydrolysis – biochemical, ADP Hunter fluorescence, primary and confirmatory, confirmation (AID 624330); type: functional
T6 sequence (Q9H0H5 whole entry): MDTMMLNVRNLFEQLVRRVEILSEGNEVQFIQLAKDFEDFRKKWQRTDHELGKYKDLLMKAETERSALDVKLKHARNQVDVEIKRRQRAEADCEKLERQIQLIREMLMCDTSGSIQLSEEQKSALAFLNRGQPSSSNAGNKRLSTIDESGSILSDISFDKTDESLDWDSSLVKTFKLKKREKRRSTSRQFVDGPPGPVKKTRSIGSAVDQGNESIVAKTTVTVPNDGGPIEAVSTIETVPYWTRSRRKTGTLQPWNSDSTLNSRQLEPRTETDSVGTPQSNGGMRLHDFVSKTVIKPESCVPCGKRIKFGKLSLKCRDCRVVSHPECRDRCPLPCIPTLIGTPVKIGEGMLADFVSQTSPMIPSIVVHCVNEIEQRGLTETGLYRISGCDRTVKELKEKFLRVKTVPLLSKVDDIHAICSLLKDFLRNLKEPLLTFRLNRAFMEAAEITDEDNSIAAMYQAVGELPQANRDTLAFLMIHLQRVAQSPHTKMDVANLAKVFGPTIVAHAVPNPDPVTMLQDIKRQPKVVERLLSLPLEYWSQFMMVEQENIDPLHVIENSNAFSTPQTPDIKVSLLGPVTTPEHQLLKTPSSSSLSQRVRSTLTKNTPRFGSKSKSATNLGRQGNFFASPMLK

COC(=O)CSc1nn(-c2ccc(F)cc2)c(=S)s1
EC50 [1]: 6.68 µM (active) | IC50 [2]: 4.86 µM (active) | EC50 [3]: > 53 µM (inactive) | IC50 [4]: > 20 µM (inactive)

CC(=O)Nc1cccc(NC(=O)CSc2ccc(-c3ccco3)nn2)c1
IC50 [5]: 10.3 µM (active) | IC50 [6]: 46.3 µM (active) | IC50 [7]: 25 µM (active) | IC50 [8]: > 100 µM (inactive)

Cc1ccc(/C=N/n2c(S)nnc2C2CCCCC2)s1
Absolute IC50 (XBP1) (X-box-binding protein 1): 10 µM

COc1ccc2c(c1)-c1nc(/N=C/c3cccc(OC)c3O)sc1CC2
IC50 (SUMO-activating enzyme): > 100 µM (inactive) | IC50 [9]: > 50 µM (not active) | IC50 [10]: 23.7 µM (active)

Reference: ChEMBL document CHEMBL1201862, “PubChem BioAssay data set” (2004)
